In one data set the target is T1, THRα-LBD (Homo sapiens, UniProt P10827).
T1 construct: purchased ThermoFisher
Put plainly: THR coactivator recruitment assay (LanthaScreen TR-FRET), THRα. It counts as biochemical. To be noted: maximum activity relative to the maximum activity of 500 nM T3. In general terms: In TR-FRET formats the signal depends on donor and acceptor labels being close together.

For data set [1], the system named is C57BL/6cnc mice. The data set can be described thus: Cholesterol-lowering efficacy in trans-fat AMLN diet-induced hypercholesterolemia mouse model. The following applies: AMLN diet mice, 0.3, 1, 3 mg/kg oral, 2 weeks; MGL-3196 effect at doses greater than 1 mg/kg. It counts as in vivo. Here is the method:
C57BL/6cnc mice were fed with AMVLN diet containing 40 Kcal % Fat, 20 Kcal % Fructose and 2% Cholesterol (Research Diets, D09100301) for 5 weeks to induce hypercholesterolemia. The cholesterol lowering efficacy of compounds disclosed herein were tested in two separate studies. […] Thyroid hormone T3 (0.1 mg/kg, intraperitoneal injection) was evaluated as a positive control in both studies. The treatment lasted two weeks with daily oral gavage. Blood samples were taken before the dosing on the first day and again at the end of study for detection of plasma cholesterol (TC), triglycerides (TG) and LDL-c. […] At the end of study, the liver tissues were taken for measuring the hepatic TC and TG levels. The compound concentration was quantified in blood, liver and heart.

Data set [2] has as its system C57BL/6cnc mice. The data set can be described thus: Cholesterol-lowering efficacy in high cholesterol diet-induced hypercholesterolemia mouse model. Type of data set: in vivo. The procedure: To further confirm the PD effects of compounds, another diet induced NAFLD mouse model was used. C57BL/6cnc mice were fed with the diet containing 1.5% cholesterol and 0.5% cholic acid (Research Diets, D12109C) for 2 weeks prior to the initiation of treatment. The cholesterol lowering efficacy of compounds disclosed herein was tested in two separate studies. […] Thyroid hormone T3 (0.1 mg/kg, intraperitoneal injection) was evaluated as a positive control in the second study. The treatment lasted two weeks with daily oral gavage. Blood samples were taken at the end of study for plasma cholesterol and LDL-c detection. At the end of study, the liver tissues were taken for measurement of the hepatic cholesterol levels. DIO1 is a THRβ target gene in liver, and its mRNA level reflects the activity of THRO. Therefore, the expression of DIO1 was also quantitated in liver tissue by qPCR to examine the target engagement by these compounds. The compound concentration was quantified in blood, liver and heart.

Data set [3] concerns C57BL/6cnc mice. Put plainly: Antifibrotic and fat reduction efficacy in NASH mouse model. Type of data set: in vivo. To be noted: first NASH study, 1 mg/kg daily oral, 12 weeks. The procedure: C57BL/6cnc mice were fed with high-fat diet containing 60 kacl % fat and 0.10% methionine (no added choline) (Research Diets, A06071302) for 12 weeks to induce NASH model. After 12-week diet induction, the mice had increased plasma levels of TC, LDL-c, ALT, and fibrosis markers. Two studies were performed on this diet-induced NASH model with different compounds and treatment durations. […] Serum biochemistry was measured before dosing during study. At the end of the experiment, liver was collected to measure liver TC and TG. Livers were punched in 2 mm diameter and fixed, sectioned and stained with Sirius Red, and the fibrosis and steatosis were scored.

The next data set has as its target T2, CYP 2C8 (Homo sapiens, UniProt P10632).
T2 construct: from tissue; host or cells: human liver microsomes
T2 sequence (P10632 1-490): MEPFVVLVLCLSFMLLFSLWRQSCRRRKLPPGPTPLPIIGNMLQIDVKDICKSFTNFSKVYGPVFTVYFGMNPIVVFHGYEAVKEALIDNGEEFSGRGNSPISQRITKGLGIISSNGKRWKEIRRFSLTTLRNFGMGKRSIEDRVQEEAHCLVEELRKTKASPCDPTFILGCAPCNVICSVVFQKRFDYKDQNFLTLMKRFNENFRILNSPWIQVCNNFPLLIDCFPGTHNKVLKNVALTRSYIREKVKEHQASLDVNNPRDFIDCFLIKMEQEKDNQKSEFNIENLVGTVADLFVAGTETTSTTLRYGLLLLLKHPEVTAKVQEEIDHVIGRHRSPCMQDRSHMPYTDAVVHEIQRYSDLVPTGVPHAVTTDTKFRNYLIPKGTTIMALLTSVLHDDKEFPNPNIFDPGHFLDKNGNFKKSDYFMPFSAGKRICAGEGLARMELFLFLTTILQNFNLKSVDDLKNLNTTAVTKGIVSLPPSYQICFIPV
Put plainly: CYP inhibition in human liver microsome, 2C8. To be noted: human liver microsomes, substrate amodiaquine, top 50 μM; read-out: CYP450 inhibition IC50 2C8. Type of data set: in vitro ADME. The procedure: (§1) Test compounds were evaluated for CYP inhibition using human liver microsomes (HLM). Test compounds were 1:3 serially diluted starting at 50 μM to generate 7 different concentrations. After incubation of diluted test compounds with HLM, a substrate cocktail composed of phenacetin (10 uM), amodiaquine (2 uM), diclofenac (5 uM), s-mephenytoin (30 uM), dextromethorphan (5 uM), and midazolam (2 uM) was added to check the remaining CYP activity for CYP 1A2, 2C8, 2C9, 2C19, 2D6 and 3A4. The CYP activity was measured by detecting the peak area of individual metabolites of know CYP substrates using LC/MS/MS. A percentage of inhibition of CYP was calculated at each final concentration of test compound, through which an IC50 was fitted to represent the inhibition potential.
For orientation: Liver microsomes are a subcellular fraction often used to study metabolism.

Another data set addresses T3, CYP 2C9 (Homo sapiens, UniProt P11712).
T3 construct: from tissue; host or cells: human liver microsomes
The data set can be described thus: CYP inhibition in human liver microsome, 2C9. Type of data set: in vitro ADME. To be noted: human liver microsomes, substrate diclofenac, top 50 μM; read-out: CYP450 inhibition IC50 2C9. The procedure: as §1

Another data set concerns the target T4, CYP 2C19 (Homo sapiens, UniProt P33261).
T4 construct: from tissue; host or cells: human liver microsomes
Put plainly: CYP inhibition in human liver microsome, 2C19. Type of data set: in vitro ADME. The following applies: human liver microsomes, substrate s-mephenytoin, top 50 μM; read-out: CYP450 inhibition IC50 2C19. The procedure:
as §1

A further data set addresses T5, CYP 2D6 (Homo sapiens, UniProt P10635).
T5 construct: from tissue; host or cells: human liver microsomes
Put plainly: CYP inhibition in human liver microsome, 2D6. Type of data set: in vitro ADME. To be noted: human liver microsomes, substrate dextromethorphan, top 50 μM; read-out: CYP450 inhibition IC50 2D6. Here is the method: as §1

Another data set has as its target T6, CYP 3A4 (Homo sapiens, UniProt P08684).
T6 construct: from tissue; host or cells: human liver microsomes
The data set can be described thus: CYP inhibition in human liver microsome, 3A4. It counts as in vitro ADME. The following applies: human liver microsomes, substrate midazolam, top 50 μM; read-out: CYP450 inhibition IC50 3A4. The procedure:
as §1

The mark [4] stands for this setting: high cholesterol diet mice, 0.3, 1, 3 mg/kg daily oral gavage, 2-week treatment.
[5] abbreviates: high cholesterol diet mice, 0.3, 1, 3 mg/kg daily oral gavage, 2 weeks.

pIC50: −log10 of the molar value.

T6 sequence (P08684 whole entry): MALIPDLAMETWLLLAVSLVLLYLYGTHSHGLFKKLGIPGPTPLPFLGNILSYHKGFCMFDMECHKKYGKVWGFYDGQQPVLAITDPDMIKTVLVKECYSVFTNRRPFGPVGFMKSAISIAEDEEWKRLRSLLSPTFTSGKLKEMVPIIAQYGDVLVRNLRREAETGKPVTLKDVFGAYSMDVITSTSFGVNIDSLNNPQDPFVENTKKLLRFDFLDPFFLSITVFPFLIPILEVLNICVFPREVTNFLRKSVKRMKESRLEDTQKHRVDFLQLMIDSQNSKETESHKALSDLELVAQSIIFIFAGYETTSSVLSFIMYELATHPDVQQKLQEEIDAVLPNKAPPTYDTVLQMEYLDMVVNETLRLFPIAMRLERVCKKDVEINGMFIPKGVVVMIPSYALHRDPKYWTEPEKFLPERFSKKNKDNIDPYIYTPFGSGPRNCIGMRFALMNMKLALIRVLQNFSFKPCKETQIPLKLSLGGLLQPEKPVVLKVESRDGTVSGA
T5 sequence (P10635 whole entry): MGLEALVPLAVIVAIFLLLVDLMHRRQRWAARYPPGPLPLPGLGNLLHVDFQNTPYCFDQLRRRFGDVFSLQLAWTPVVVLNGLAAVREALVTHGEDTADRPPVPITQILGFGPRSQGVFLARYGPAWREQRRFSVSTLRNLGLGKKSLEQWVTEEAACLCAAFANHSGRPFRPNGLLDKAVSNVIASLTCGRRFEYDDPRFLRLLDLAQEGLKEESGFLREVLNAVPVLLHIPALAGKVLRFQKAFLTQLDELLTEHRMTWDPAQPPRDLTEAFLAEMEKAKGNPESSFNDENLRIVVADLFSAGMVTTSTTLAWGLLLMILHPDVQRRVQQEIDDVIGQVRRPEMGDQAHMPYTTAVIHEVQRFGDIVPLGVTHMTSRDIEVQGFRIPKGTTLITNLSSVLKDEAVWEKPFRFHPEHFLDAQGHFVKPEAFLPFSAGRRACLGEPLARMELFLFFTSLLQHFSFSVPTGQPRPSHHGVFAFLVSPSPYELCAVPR
T3 sequence (P11712 whole entry): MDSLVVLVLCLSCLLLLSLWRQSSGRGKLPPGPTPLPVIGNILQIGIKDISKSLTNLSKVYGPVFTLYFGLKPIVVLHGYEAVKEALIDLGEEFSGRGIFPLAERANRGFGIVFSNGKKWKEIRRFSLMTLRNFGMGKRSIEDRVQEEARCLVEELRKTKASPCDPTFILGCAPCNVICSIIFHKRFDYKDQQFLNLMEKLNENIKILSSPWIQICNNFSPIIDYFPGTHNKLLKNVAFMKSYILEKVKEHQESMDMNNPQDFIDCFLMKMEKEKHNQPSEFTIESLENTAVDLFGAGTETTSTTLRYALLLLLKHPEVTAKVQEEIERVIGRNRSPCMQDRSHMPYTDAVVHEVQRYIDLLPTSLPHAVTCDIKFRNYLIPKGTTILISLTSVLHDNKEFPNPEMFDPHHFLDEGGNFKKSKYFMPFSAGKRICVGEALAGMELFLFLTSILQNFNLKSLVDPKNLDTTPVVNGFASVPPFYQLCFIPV
T1 sequence (P10827 163-410 isoform P10827-2 limits assumed, other chains not shown): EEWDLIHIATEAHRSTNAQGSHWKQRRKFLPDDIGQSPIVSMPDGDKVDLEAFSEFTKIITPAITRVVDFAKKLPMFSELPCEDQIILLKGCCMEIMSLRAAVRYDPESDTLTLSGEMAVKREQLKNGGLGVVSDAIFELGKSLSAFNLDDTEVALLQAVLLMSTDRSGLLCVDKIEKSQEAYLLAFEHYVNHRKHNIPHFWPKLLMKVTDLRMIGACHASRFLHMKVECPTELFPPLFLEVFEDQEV
T4 sequence (P33261 whole entry): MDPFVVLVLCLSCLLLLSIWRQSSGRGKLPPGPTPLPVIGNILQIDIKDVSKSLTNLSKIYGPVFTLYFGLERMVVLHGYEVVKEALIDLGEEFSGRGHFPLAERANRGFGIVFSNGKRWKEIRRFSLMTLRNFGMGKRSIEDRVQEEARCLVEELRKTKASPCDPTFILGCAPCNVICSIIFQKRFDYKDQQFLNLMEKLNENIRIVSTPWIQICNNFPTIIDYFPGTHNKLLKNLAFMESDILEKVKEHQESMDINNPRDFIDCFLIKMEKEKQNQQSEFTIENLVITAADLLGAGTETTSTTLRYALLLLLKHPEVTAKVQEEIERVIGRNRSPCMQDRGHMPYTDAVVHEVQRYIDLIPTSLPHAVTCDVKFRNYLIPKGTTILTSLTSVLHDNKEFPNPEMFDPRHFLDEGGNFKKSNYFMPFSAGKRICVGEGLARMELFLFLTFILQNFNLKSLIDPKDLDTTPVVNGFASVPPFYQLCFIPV
Protocol for THRα-LBD: The coactivator recruitment assay was performed using LanthaScreen™ TR-FRET TR coactivator assay kit (ThermoFisher). […] The diluted test compounds were mixed with the same volume of other reagents (10 μl:10 μl). […] In addition, the selectivity for each compound was normalized for the selectivity of T3 run in the same assay.

Regarding `CC(C)c1cc(Oc2c(Cl)cc(-n3nc(C#N)c(=O)[nH]c3=O)cc2Cl)n[nH]c1=O` [MGL-3196, reference compound], on THRα-LBD, the “THRα Bmax % (vs T3)” value amounted to 49%. Moreover, in the data set with C57BL/6cnc mice [1], the ALT entry is on record as “increased” and the AST entry is on record as “increased”. For the same compound, in the data set with C57BL/6cnc mice [2] (setting [4]), the LDL-c entry is reported as “reduced” and the “plasma TC” value is recorded as “reduced”. In the data set with C57BL/6cnc mice [2] (setting [5]), the “liver TC” value is given as “significantly decreased” and the “liver TG” value is listed as “significantly decreased”. Moreover, the “expression of DIO1 in liver” value in the data set with C57BL/6cnc mice [2] (qPCR, mRNA of THRβ target gene, high cholesterol diet mice) is on record as “dose-dependently upregulated”. Also, in the data set on C57BL/6cnc mice [3], the “liver TC” value is “significantly decreased”, the “liver TG” value is given as “significantly decreased” and the “plasma LDL-c level” value is “reduced to normal range”. For the same compound, the “plasma TC level” value in the data set on C57BL/6cnc mice [3] (as early as 6 days after treatment) is recorded as “reduced”. For the same compound, in the data set on C57BL/6cnc mice [3] (to normal range), the ALT level result is “reduced” and the liver weight result is on record as “reduced”. Moreover, the pIC50 on CYP 2C8 is 5.37. Moreover, the pIC50 at CYP 2C9 is 4.73. Besides, the pIC50 on CYP 2C19 was less than 4.30. Further, the pIC50 at CYP 2D6 is less than 4.30. On CYP 3A4, the pIC50 was less than 4.30.

The pIC50 is the negative decadic logarithm of the IC50, by convention in mol/L.

The values above are taken from patent publication US12358899B2, “Thyroid hormone receptor agonists and uses thereof” (XIZANG HAISCO PHARMACEUTICAL CO., LTD., priority 2018, dated 2025).
